Measurements reported in ChEMBL document CHEMBL1240402 (2010).
Calls of active or inactive are those of the source. The calls are words filed in the database; no cut-off is given here.

Key:
Type in all cases: functional
Clostridium perfringens [1] = test: Antimicrobial activity against Clostridium perfringens LFM1 assessed as susceptibility breakpoint by DIN-standardized microdilution method
Clostridium perfringens [2] = test: Antimicrobial activity against Clostridium perfringens LFM1 assessed as susceptibility breakpoint by DANMAP method
Escherichia coli = test: Antimicrobial activity against flo gene positive Escherichia coli
Clostridium perfringens [3] = test: Antimicrobial activity against Clostridium perfringens LFM1 assessed as susceptibility breakpoint by EUCAST method

SMILES | Activity (Clostridium perfringens [1]) | Activity (Clostridium perfringens [2]) | MIC (Escherichia coli) | Activity (Clostridium perfringens [3]) | Activity (Clostridium perfringens [3]; record 2)
CCC[C@@H]1C[C@@H](C(=O)N[C@@H]([C@H]2O[C@H](SC)[C@H](O)[C@@H](O)[C@H]2O)[C@H](C)Cl)N(C)C1 | inactive | – | – | – | –
CC[C@H]1OC(=O)[C@H](C)[C@@H](O[C@H]2C[C@@](C)(OC)[C@@H](O)[C@H](C)O2)[C@H](C)[C@@H](O[C@@H]2O[C@H](C)C[C@H](N(C)C)[C@H]2O)[C@](C)(O)C[C@@H](C)C(=O)[C@H](C)[C@@H](O)[C@]1(C)O | inactive | – | – | – | –
O=C(N[C@H](CO)[C@H](O)c1ccc([N+](=O)[O-])cc1)C(Cl)Cl | – | inactive | – | – | –
CS(=O)(=O)c1ccc([C@@H](O)[C@@H](CF)NC(=O)C(Cl)Cl)cc1 [FLORFENICOL] | – | inactive | > 32 µg/mL | – | –
CC(=O)NC[C@H]1CN(c2ccc(N3CCOCC3)c(F)c2)C(=O)O1 [LINEZOLID] | <=2 mg/L | <=2 mg/L | > 64 µg/mL | inactive | <=2 mg/L
